Measurements reported in PMC10329973 (Clinical pharmacology in drug development, 2023).
Where “and” joins values, the source holds several entries; their conditions need not be identical. Identical values can stand only once.

What was measured:
healthy adult volunteers = experiment: Multiple ascending dose study NP10679-102, safety and tolerability; assay type: in vivo, human; settings: MAD; for TEAE: Dizziness / TEAE: Dysgeusia / TEAE: Erythema / TEAE: Fatigue / TEAE: Head injury / TEAE: Headache / TEAE: Nausea / TEAE: Pain / TEAE: Peripheral swelling / TEAE: Phlebitis / TEAE: Somnolence / TEAE: Syncope / TEAE: Vision blurred / Subjects with at least one TEAE / TEAE, system organ class: Blood and lymphatic system disorders / TEAE, system organ class: Eye disorders / TEAE, system organ class: Gastrointestinal disorders / TEAE, system organ class: General disorders and administration site conditions / TEAE, system organ class: Injury, poisoning and procedural complications / TEAE, system organ class: Investigations / TEAE, system organ class: Musculoskeletal and connective tissue disorders / TEAE, system organ class: Nervous system disorders / TEAE, system organ class: Skin and subcutaneous tissue disorders / TEAE, system organ class: Vascular disorders / TEAE: Anaemia / TEAE: Asthenia / TEAE: Back pain / TEAE: Blood pressure diastolic decreased / TEAE: Contusion: N = 6
[1] = In vitro metabolic stability, hepatic microsomes; assay type: in vitro ADME, mice, rats, dogs, and humans; settings: mouse, rat, dog, human, liver microsomes
Plasma protein binding = assay type: in vitro ADME, mice, rats, dogs, and humans; settings: mouse, rat, dog, human
[2] = mouse; cited from earlier work
[3] = system: murine MCAO model of ischemic brain injury; settings: cited from earlier work
hERG channel = settings: read-out: IC50, hERG channel; cited from earlier work
[4] = mouse, minimum effective dose 2 mg/kg IP; cited from earlier work
GABAergic receptors = settings: cited from earlier work

O=C1CCc2cc(OC[C@H](O)CN3CCN(c4ccc(C(F)(F)F)cc4)CC3)ccc2N1 [NP10679, (R)-6-(2-Hydroxy-3-(4-(4-(trifluoromethyl)phenyl)piperazin-1-yl)propoxy)-3,4-dihydroquinolin-2(1H)-one]
TEAE: Dizziness (healthy adult volunteers; 25 mg IV once daily x 5 days): 0 n (%) | TEAE: Dysgeusia (healthy adult volunteers; 25 mg IV once daily x 5 days): 1 (16.7%) n (%) | TEAE: Erythema (healthy adult volunteers; 25 mg IV once daily x 5 days): 0 n (%) | TEAE: Fatigue (healthy adult volunteers; 25 mg IV once daily x 5 days): 1 (16.7%) n (%) | TEAE: Head injury (healthy adult volunteers; 25 mg IV once daily x 5 days): 0 n (%) | TEAE: Headache (healthy adult volunteers; 25 mg IV once daily x 5 days): 2 (33.3%) n (%) | TEAE: Nausea (healthy adult volunteers; 25 mg IV once daily x 5 days): 0 n (%) | TEAE: Pain (healthy adult volunteers; 25 mg IV once daily x 5 days): 0 n (%) | TEAE: Peripheral swelling (healthy adult volunteers; 25 mg IV once daily x 5 days): 0 n (%) | TEAE: Phlebitis (healthy adult volunteers; 25 mg IV once daily x 5 days): 0 n (%) | TEAE: Somnolence (healthy adult volunteers; 25 mg IV once daily x 5 days): 0 n (%) | TEAE: Syncope (healthy adult volunteers; 25 mg IV once daily x 5 days): 0 n (%) | TEAE: Vision blurred (healthy adult volunteers; 25 mg IV once daily x 5 days): 0 n (%) | Subjects with at least one TEAE (healthy adult volunteers; 50 mg IV once daily x 5 days): 3 (50.0%) n (%) | TEAE, system organ class: Blood and lymphatic system disorders (healthy adult volunteers; 50 mg IV once daily x 5 days): 0 n (%) | TEAE, system organ class: Eye disorders (healthy adult volunteers; 50 mg IV once daily x 5 days): 0 n (%) | TEAE, system organ class: Gastrointestinal disorders (healthy adult volunteers; 50 mg IV once daily x 5 days): 0 n (%) | TEAE, system organ class: General disorders and administration site conditions (healthy adult volunteers; 50 mg IV once daily x 5 days): 2 (33.3%) n (%) | TEAE, system organ class: Injury, poisoning and procedural complications (healthy adult volunteers; 50 mg IV once daily x 5 days): 1 (16.7%) n (%) | TEAE, system organ class: Investigations (healthy adult volunteers; 50 mg IV once daily x 5 days): 0 n (%) | TEAE, system organ class: Musculoskeletal and connective tissue disorders (healthy adult volunteers; 50 mg IV once daily x 5 days): 0 n (%) | TEAE, system organ class: Nervous system disorders (healthy adult volunteers; 50 mg IV once daily x 5 days): 3 (50.0%) n (%) | TEAE, system organ class: Skin and subcutaneous tissue disorders (healthy adult volunteers; 50 mg IV once daily x 5 days): 1 (16.7%) n (%) | TEAE, system organ class: Vascular disorders (healthy adult volunteers; 50 mg IV once daily x 5 days): 0 n (%) | TEAE: Anaemia (healthy adult volunteers; 50 mg IV once daily x 5 days): 0 n (%) | TEAE: Asthenia (healthy adult volunteers; 50 mg IV once daily x 5 days): 0 n (%) | TEAE: Back pain (healthy adult volunteers; 50 mg IV once daily x 5 days): 0 n (%) | TEAE: Blood pressure diastolic decreased (healthy adult volunteers; 50 mg IV once daily x 5 days): 0 n (%) | TEAE: Contusion (healthy adult volunteers; 50 mg IV once daily x 5 days): 1 (16.7%) n (%) | TEAE: Dizziness (healthy adult volunteers; 50 mg IV once daily x 5 days): 0 n (%) | TEAE: Dysgeusia (healthy adult volunteers; 50 mg IV once daily x 5 days): 0 n (%) | TEAE: Erythema (healthy adult volunteers; 50 mg IV once daily x 5 days): 1 (16.7%) n (%) | TEAE: Fatigue (healthy adult volunteers; 50 mg IV once daily x 5 days): 1 (16.7%) n (%) | TEAE: Head injury (healthy adult volunteers; 50 mg IV once daily x 5 days): 0 n (%) | TEAE: Headache (healthy adult volunteers; 50 mg IV once daily x 5 days): 0 n (%) | TEAE: Nausea (healthy adult volunteers; 50 mg IV once daily x 5 days): 0 n (%) | TEAE: Pain (healthy adult volunteers; 50 mg IV once daily x 5 days): 1 (16.7%) n (%) | TEAE: Peripheral swelling (healthy adult volunteers; 50 mg IV once daily x 5 days): 1 (16.7%) n (%) | TEAE: Phlebitis (healthy adult volunteers; 50 mg IV once daily x 5 days): 0 n (%) | TEAE: Somnolence (healthy adult volunteers; 50 mg IV once daily x 5 days): 3 n (%) and 3 (50.0%) n (%) | TEAE: Syncope (healthy adult volunteers; 50 mg IV once daily x 5 days): 0 n (%) | TEAE: Vision blurred (healthy adult volunteers; 50 mg IV once daily x 5 days): 0 n (%) | Subjects with at least one TEAE (healthy adult volunteers; 100 mg IV once daily x 5 days): 6 (100%) n (%) | TEAE, system organ class: Blood and lymphatic system disorders (healthy adult volunteers; 100 mg IV once daily x 5 days): 1 (16.7%) n (%) | TEAE, system organ class: Eye disorders (healthy adult volunteers; 100 mg IV once daily x 5 days): 0 n (%) | TEAE, system organ class: Gastrointestinal disorders (healthy adult volunteers; 100 mg IV once daily x 5 days): 1 (16.7%) n (%) | TEAE, system organ class: General disorders and administration site conditions (healthy adult volunteers; 100 mg IV once daily x 5 days): 1 (16.7%) n (%) | TEAE, system organ class: Injury, poisoning and procedural complications (healthy adult volunteers; 100 mg IV once daily x 5 days): 1 (16.7%) n (%) | TEAE, system organ class: Investigations (healthy adult volunteers; 100 mg IV once daily x 5 days): 0 n (%) | TEAE, system organ class: Musculoskeletal and connective tissue disorders (healthy adult volunteers; 100 mg IV once daily x 5 days): 0 n (%) | TEAE, system organ class: Nervous system disorders (healthy adult volunteers; 100 mg IV once daily x 5 days): 4 (66.7%) n (%) | TEAE, system organ class: Skin and subcutaneous tissue disorders (healthy adult volunteers; 100 mg IV once daily x 5 days): 0 n (%) | TEAE, system organ class: Vascular disorders (healthy adult volunteers; 100 mg IV once daily x 5 days): 1 (16.7%) n (%) | TEAE: Anaemia (healthy adult volunteers; 100 mg IV once daily x 5 days): 1 (16.7%) n (%) | TEAE: Asthenia (healthy adult volunteers; 100 mg IV once daily x 5 days): 1 (16.7%) n (%) | TEAE: Back pain (healthy adult volunteers; 100 mg IV once daily x 5 days): 0 n (%) | TEAE: Blood pressure diastolic decreased (healthy adult volunteers; 100 mg IV once daily x 5 days): 0 n (%) | TEAE: Contusion (healthy adult volunteers; 100 mg IV once daily x 5 days): 0 n (%) | TEAE: Dizziness (healthy adult volunteers; 100 mg IV once daily x 5 days): 0 n (%) | TEAE: Dysgeusia (healthy adult volunteers; 100 mg IV once daily x 5 days): 0 n (%) | TEAE: Erythema (healthy adult volunteers; 100 mg IV once daily x 5 days): 0 n (%) | TEAE: Fatigue (healthy adult volunteers; 100 mg IV once daily x 5 days): 0 n (%) | TEAE: Head injury (healthy adult volunteers; 100 mg IV once daily x 5 days): 1 (16.7%) n (%) | TEAE: Headache (healthy adult volunteers; 100 mg IV once daily x 5 days): 2 (33.3%) n (%) | TEAE: Nausea (healthy adult volunteers; 100 mg IV once daily x 5 days): 1 (16.7%) n (%) | TEAE: Pain (healthy adult volunteers; 100 mg IV once daily x 5 days): 1 (16.7%) n (%) | TEAE: Peripheral swelling (healthy adult volunteers; 100 mg IV once daily x 5 days): 0 n (%) | TEAE: Phlebitis (healthy adult volunteers; 100 mg IV once daily x 5 days): 1 (16.7%) n (%) | TEAE: Somnolence (healthy adult volunteers; 100 mg IV once daily x 5 days): 3 n (%) and 3 (50.0%) n (%) | TEAE: Syncope (healthy adult volunteers; 100 mg IV once daily x 5 days): 1 (16.7%) n (%) | TEAE: Vision blurred (healthy adult volunteers; 100 mg IV once daily x 5 days): 0 n (%) | somnolence upon repeat dosing (healthy adult volunteers; 5 days of dosing): no signs of increased somnolence | half-life [1]: > 2 h | fraction unbound (Plasma protein binding): 0.01 to 0.026 | oral availability F% [2]: 76% | minimum effective dose in the MCAO model ([3]; IP, mouse): 2 mg/kg | infarct volume ([3]; administered 15 minutes prior to occlusion): effective in reducing infarct volume | IC50 (hERG channel): 620 nM | AUC(0-inf) [4]: 5690 ng·h/mL | Cmax [4]: 581 ng/mL | activity at GABAergic receptors (GABAergic receptors): does not have activity
